The text below walks through data of article PMC6421522, “Designing Dual Inhibitors of Anaplastic Lymphoma Kinase (ALK) and Bromodomain-4 (BRD4) by Tuning Kinase Selectivity” (Journal of Medicinal Chemistry, 2019).

As usually defined, the IC50 is the point on the concentration scale where inhibition reaches its midpoint.

The structures appear in SMILES notation.

The target of one test is T1, PLK-1 (Homo sapiens, UniProt P53350).
T1 construct: purchased Thermo Fisher Scientific (SelectScreen service)
T1 sequence (P53350 whole entry): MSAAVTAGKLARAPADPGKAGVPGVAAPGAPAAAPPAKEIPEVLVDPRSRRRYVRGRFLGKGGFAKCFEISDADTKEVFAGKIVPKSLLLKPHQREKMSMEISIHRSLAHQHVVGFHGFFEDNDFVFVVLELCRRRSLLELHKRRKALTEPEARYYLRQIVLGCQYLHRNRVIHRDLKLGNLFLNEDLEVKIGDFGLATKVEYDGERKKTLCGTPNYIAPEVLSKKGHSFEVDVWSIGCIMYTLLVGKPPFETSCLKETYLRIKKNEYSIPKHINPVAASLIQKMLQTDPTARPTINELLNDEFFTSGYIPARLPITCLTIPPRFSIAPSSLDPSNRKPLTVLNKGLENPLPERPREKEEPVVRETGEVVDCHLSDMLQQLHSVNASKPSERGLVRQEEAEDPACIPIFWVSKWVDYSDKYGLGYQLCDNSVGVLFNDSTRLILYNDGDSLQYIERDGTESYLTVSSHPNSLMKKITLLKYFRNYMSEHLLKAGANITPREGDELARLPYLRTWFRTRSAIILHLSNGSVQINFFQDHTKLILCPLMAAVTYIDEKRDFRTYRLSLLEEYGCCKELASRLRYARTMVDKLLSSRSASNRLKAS
Nature of the test: PLK-1 Z-LYTE activity assay (SelectScreen). The conditions noted are these: for fold decrease of PLK-1 activity/potency: relative to starting compound BI-2536. In kind it is biochemical.

Another test concerns the target T2, ALK^F1174L (Homo sapiens, UniProt Q9UM73, F1174L).
T2 construct: purchased Carna Biosciences
Nature of the test: LanthaScreen Eu kinase binding assay. (In general: In TR-FRET formats the signal depends on donor and acceptor labels being close together.)

For another test, the target named is ALK WT (Homo sapiens, UniProt Q9UM73). The test is described as follows: Biochemical ALK WT IC50. The class given is binding. Conditions: geometric mean.
ALK WT, sequence (Q9UM73 19-1620): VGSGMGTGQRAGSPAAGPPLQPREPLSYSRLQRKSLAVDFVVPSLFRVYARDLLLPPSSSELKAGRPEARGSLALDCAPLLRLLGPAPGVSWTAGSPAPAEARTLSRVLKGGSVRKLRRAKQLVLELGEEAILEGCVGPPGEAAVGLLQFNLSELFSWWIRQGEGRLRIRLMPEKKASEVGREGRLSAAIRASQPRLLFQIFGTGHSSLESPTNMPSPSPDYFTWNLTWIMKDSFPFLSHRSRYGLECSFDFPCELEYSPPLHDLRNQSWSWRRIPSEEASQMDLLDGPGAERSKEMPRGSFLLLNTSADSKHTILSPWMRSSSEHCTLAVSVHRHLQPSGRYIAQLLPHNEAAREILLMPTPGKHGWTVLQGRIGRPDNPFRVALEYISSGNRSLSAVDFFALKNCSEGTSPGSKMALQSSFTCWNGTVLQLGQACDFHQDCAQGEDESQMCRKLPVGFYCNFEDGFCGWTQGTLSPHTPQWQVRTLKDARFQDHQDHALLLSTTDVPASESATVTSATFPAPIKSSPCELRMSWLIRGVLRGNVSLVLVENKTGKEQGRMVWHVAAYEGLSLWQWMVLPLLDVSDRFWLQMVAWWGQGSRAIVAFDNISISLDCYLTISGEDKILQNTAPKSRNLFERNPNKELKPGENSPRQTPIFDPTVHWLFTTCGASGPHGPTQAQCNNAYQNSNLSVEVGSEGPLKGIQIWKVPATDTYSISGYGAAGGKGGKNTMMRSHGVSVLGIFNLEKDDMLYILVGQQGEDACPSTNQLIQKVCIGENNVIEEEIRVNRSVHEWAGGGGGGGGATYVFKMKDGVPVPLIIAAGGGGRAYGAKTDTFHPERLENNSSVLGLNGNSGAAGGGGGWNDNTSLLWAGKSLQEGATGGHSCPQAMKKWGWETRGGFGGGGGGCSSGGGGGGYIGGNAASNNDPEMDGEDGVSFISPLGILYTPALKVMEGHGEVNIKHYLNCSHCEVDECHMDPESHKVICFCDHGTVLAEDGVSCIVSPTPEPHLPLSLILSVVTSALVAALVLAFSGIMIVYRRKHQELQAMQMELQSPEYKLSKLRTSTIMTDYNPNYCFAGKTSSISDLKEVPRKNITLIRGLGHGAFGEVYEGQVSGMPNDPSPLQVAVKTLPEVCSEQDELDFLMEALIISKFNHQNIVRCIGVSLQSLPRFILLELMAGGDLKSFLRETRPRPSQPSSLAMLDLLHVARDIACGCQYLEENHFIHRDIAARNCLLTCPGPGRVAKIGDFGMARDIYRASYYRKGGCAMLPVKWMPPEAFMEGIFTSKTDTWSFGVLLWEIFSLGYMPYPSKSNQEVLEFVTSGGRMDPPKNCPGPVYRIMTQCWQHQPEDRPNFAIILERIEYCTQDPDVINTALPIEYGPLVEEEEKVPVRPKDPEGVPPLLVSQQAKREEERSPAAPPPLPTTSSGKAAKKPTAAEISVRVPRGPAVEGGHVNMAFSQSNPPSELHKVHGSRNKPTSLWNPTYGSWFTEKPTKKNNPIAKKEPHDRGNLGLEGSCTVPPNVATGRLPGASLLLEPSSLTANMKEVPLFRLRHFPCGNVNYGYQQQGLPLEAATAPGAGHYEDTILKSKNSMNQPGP
The subject of the next test is HeLa cells. The test is described as follows: Mitotic arrest and mitotic markers in HeLa cells (Western blot). The class given is cell-based. The conditions noted are these: HeLa cells, Western blot. On the procedure:
Protein extracts of cells were prepared by lysis in radioimmunoprecipitation assay buffer (Sigma) supplemented with protease inhibitors (complete protease inhibitor cocktail, Roche). Protein extracts (25 μg) were separated by sodium dodecyl sulfate-polyacrylamide gel electrophoresis and transferred onto poly(vinylidene difluoride) membranes using the Trans-Blot Turbo transfer system (BioRad). After blocking with 5% bovine serum albumin in PBS with 0.1% Tween-20 for 30 min, the membrane was incubated with primary antibodies for 1 h at room temperature. Horseradish peroxidase-linked secondary antibodies were incubated 30 min at room temperature followed by enhanced chemiluminescence (ECL) detection (ECL Western blot substrate, Pierce).
Primary antibodies were obtained from the following sources: PLK-1 (05-844) and phosphohistone H3 (Ser10) (05806) from Millipore; pPlk1-T210 (5472) from Cell Signaling; pPlk1-S137 (21738) from Abcam; and cyclin B1 (GNS1) and β-actin (A2228) from Sigma-Aldrich served as loading control.
A general note: Immunoblotting shows a protein as a band on a membrane.

T2 sequence (Q9UM73 19-1620 F1174L): as the sequence (Q9UM73 19-1620) above, with F1156L counted along it

Regarding `CC[C@@H]1C(=O)N(C)c2cnc(Nc3ccc(C4CCN(C)CC4)cc3OC)nc2N1C1CCCC1` [16a, (R)-8-Cyclopentyl-7-ethyl-2-((2-methoxy-4-(1-methylpiperidin-4-yl)phenyl)amino)-5-methyl-7,8-dihydropteridin-6(5H)-one], at PLK-1, the “fold decrease of PLK-1 activity/potency” value is “four-fold”.

As to `CCOc1cc(C(=O)NC2CCN(C)CC2)ccc1Nc1ncc2c(n1)N(C1CCCC1)CC(=O)N2C` [16e, 4-((8-Cyclopentyl-5-methyl-6-oxo-5,6,7,8-tetrahydropteridin-2-yl)amino)-3-ethoxy-N-(1-methylpiperidin-4-yl)benzamide], the “fold reduction of ALK^F1174L potency” value on ALK^F1174L (on removal of the (R)-Et group) amounted to 3 fold.

On to `CCOc1cc(C(=O)NC2CCN(C)CC2)ccc1Nc1ncc2c(n1)N(Cc1cccc(Br)c1)[C@H](CC)C(=O)N2C` [16f, (R)-4-((8-(3-Bromobenzyl)-7-ethyl-5-methyl-6-oxo-5,6,7,8-tetrahydropteridin-2-yl)amino)-3-ethoxy-N-(1-methylpiperidin-4-yl)benzamide], for which, on PLK-1, the “fold decrease of PLK-1 activity/potency” value was 30–40 fold.

In the case of `CCOc1cc(C(=O)NC2CCN(C)CC2)ccc1Nc1ncc2c(n1)N(Cc1ccccc1)[C@H](CC)C(=O)N2C` [16g, (R)-4-((8-Benzyl-7-ethyl-5-methyl-6-oxo-5,6,7,8-tetrahydropteridin-2-yl)amino)-3-ethoxy-N-(1-methylpiperidin-4-yl)benzamide], at PLK-1, the “fold decrease of PLK-1 activity/potency” value is reported as 30–40 fold.

As for `CCOc1cc(C2CCN(C)CC2)ccc1Nc1ncc2c(n1)N(Cc1cccc(Br)c1)[C@H](CC)C(=O)N2C` [16h, (R)-8-(3-Bromobenzyl)-2-((2-ethoxy-4-(1-methylpiperidin-4-yl)phenyl)amino)-7-ethyl-5-methyl-7,8-dihydropteridin-6(5H)-one], on PLK-1, the “fold decrease of PLK-1 activity/potency” value is recorded as 100–200 fold.

`CCOc1cc(C2CCN(C)CC2)ccc1Nc1ncc2c(n1)N(Cc1ccccc1)[C@H](CC)C(=O)N2C` [16i, (R)-8-Benzyl-2-((2-ethoxy-4-(1-methylpiperidin-4-yl)phenyl)amino)-7-ethyl-5-methyl-7,8-dihydropteridin-6(5H)-one]: at ALK^F1174L, the “fold increase in ALK^F1174L potency” value was 2 fold. For the same compound, the IC50 at ALK WT worked out at 120 ± 11 nM. Besides, the “fold decrease of PLK-1 activity/potency” value at PLK-1 is reported as 100–200 fold.

`CCOc1cc(C2CCN(C)CC2)ccc1Nc1ncc2c(n1)N(Cc1sccc1C)[C@H](CC)C(=O)N2C` [16j, (R)-2-((2-Ethoxy-4-(1-methylpiperidin-4-yl)phenyl)amino)-7-ethyl-5-methyl-8-((3-methylthiophen-2-yl)methyl)-7,8-dihydropteridin-6(5H)-one] registered an IC50 against ALK WT of 89 ± 4 nM.

Consider `CCOc1cc(C2CCN(C)CC2)ccc1Nc1ncc2c(n1)N(Cc1cccc(C#N)c1)[C@H](CC)C(=O)N2C` [23b, (R)-3-((2-((2-Ethoxy-4-(1-methylpiperidin-4-yl)phenyl)amino)-7-ethyl-5-methyl-6-oxo-6,7-dihydropteridin-8(5H)-yl)methyl)benzonitrile], for which the “ALK selectivity over PLK-1” value on PLK-1 (biochemical IC50s ALK^F1174L vs PLK-1) is 5 fold. Besides, the “fold decrease of PLK-1 activity/potency” value on PLK-1 is on record as more than 700 fold.

`CC[C@@H]1C(=O)N(C)c2cnc(Nc3ccc(C(=O)NC4CCN(C)CC4)cc3OC)nc2N1C1CCCC1` [BI-2536, reference compound]: the “concentration inducing mitotic arrest and increased PLK-1, cyclin B1, phosphohistone H3” value with HeLa cells is not above 50 nM.
